# Assay results: article PMC4503722, “Novel Phenotypic Outcomes Identified for a Public Collection of Approved Drugs from a Publicly Accessible Panel of Assays” (PLoS ONE, 2015)
# Like-named read-outs stand apart in the source and are kept apart here.
# Assays:
# Experiment in all cases: cells
# HCT116 = type: cell-based; conditions: Homo sapiens
# [1] = test system: endothelial tube formation in co-cultures of ECFCs and ADSCs treated with VEGF; type: cell-based, human
# INS-1E cells = type: cell-based, rat
# [2] = test system: HCT116 cells treated with a GSK3β inhibitor; type: cell-based; conditions: Homo sapiens
# DLD-1 = type: cell-based; conditions: Homo sapiens
# [3] = test system: nuclear β-catenin in C2C12 cells; type: cell-based
# HeLa cells = type: cell-based; conditions: Homo sapiens, HeLa, HeLa, read-out: CellCycle G2/M
# SW480 = type: cell-based; conditions: Homo sapiens
# NCI-H716 cells = type: cell-based, Human
# [4] = HCT-116, basal, HCT116, read-out: Basal_Viability ATP HCT116
# [5] = Homo sapiens; read-out: Anti-Angiogenesis
# [6] = Rattus norvegicus, INS-1E; read-out: Insulin Secretion
# [7] = HCT-116, HCT116 pretreated with GSK3b inhibitor, read-out: GSK3b inh pretreated_Viability ATP HCT116
# [8] = DLD-1, basal, DLD-1, read-out: Basal_Viability ATP DLD-1
# [9] = Mus musculus, C2C12, S2 Table; module primary assay; 20 / 20.1 codes per legend; read-out: Wnt Pathway
# [10] = S2 Table, 20 = no response at highest concentration
# [11] = SW480, basal, SW480, read-out: Basal_Viability ATP SW480
# [12] = Homo sapiens, NCI-H716; read-out: GLP 1 Secretion
# [13] = HCT-116, basal, read-out: Basal_Viability ATP HCT116
# [14] = Homo sapiens, IC50 / EC50; endothelial tube area, ADSC/ECFC co-culture; read-out: Anti-Angiogenesis
# [15] = Rattus norvegicus; IC50 / EC50; INS-1E; read-out: Insulin Secretion
# [16] = HCT-116, read-out: GSK3b inh pretreated_Viability ATP HCT116
# [17] = DLD-1, basal, read-out: Basal_Viability ATP DLD-1
# [18] = Mus musculus, C2C12, IC50 / EC50; C2C12 beta-catenin translocation; read-out: Wnt Pathway
# [19] = SW480, basal, read-out: Basal_Viability ATP SW480
# [20] = Homo sapiens; IC50 / EC50; NCI-H716; read-out: GLP 1 Secretion
# [21] = Homo sapiens, read-out: Anti-Angiogenesis
# [22] = HCT-116, 72 h, read-out: HCT-116 viab. IC50, Table 2, basal, 72 h, Cell TiterGlo, non-adherent, 20 coded
# [23] = Rattus norvegicus, INS-1E; read-out: Ins. sec. EC50
# [24] = HCT-116, read-out: HCT-116 (GSK3β) viab. IC50, Table 2, GSK3β inhibitor LY2090314 20 nM, 72 h, Cell TiterGlo, 20 coded
# [25] = DLD-1, 72 h, Table 2, 72 h, Cell TiterGlo, non-adherent, 20 coded, read-out: DLD-1 viab. IC50
# [26] = SW480, 72 h, Table 2, 72 h, Cell TiterGlo, non-adherent, 20 coded, read-out: SW480 viab. IC50
# [27] = Homo sapiens, NCI-H716; read-out: GLP1 sec. EC50
# [28] = HCT-116, GSK3b inhibitor pretreated, read-out: GSK3b inh pretreated_Viability ATP HCT116
Structure (SMILES),IC50 (HCT116; [4]),IC50 (DLD-1; [8]),EC50 (HeLa cells; [10]),IC50 (SW480; [11]),IC50 (HCT116; [13]),"IC50 [1, 14]",EC50 (INS-1E cells; [15]),IC50 (DLD-1; [17]),"EC50 [3, 18]",EC50 (HeLa cells; IC50 / EC50),IC50 (SW480; [19]),EC50 (NCI-H716 cells; [20]),"IC50 [2, 28]",further results
CC(=O)N(O)CCCCCNC(=O)CCC(=O)N(O)CCCCCNC(=O)CCC(=O)N(O)CCCCCN [Deferoxamine],8.55 µM,> 20 µM,> 10 µM,> 20 µM,,,,,,,,,,"IC50 [1, 5]: 4.53 µM; EC50 (INS-1E cells; [6]): > 10 µM; IC50 [2, 7]: > 20 µM; EC50 [3, 9]: > 10 µM; EC50 (NCI-H716 cells; [12]): > 10 µM"
CN1CC[C@H](c2c(O)cc(O)c3c(=O)cc(-c4ccccc4Cl)oc23)[C@H](O)C1 [Flavopiridol],,,,,16.7 µM,0.114 µM,> 10 µM,0.0684 µM,0.191 µM,> 10 µM,2.11 µM,> 10 µM,,"IC50 [2, 16]: 0.297 µM"
C=CC(=O)Nc1cc2c(Nc3ccc(F)c(Cl)c3)ncnc2cc1OCCCN1CCOCC1 [Canertinib],,,,,,,,,,,,,,"IC50 (HCT116; HCT-116, read-out: Basal_Viability ATP HCT116): 3.71 µM; IC50 [1, 21]: > 10 µM; EC50 (INS-1E cells; Rattus norvegicus, INS-1E, read-out: Insulin Secretion): > 10 µM; IC50 [2, 16]: 3.51 µM; IC50 (DLD-1; DLD-1, read-out: Basal_Viability ATP DLD-1): 0.841 µM; EC50 ([3]; Mus musculus, C2C12, read-out: Wnt Pathway): 1 µM; EC50 (HeLa cells): > 10 µM; IC50 (SW480; SW480, read-out: Basal_Viability ATP SW480): 1.21 µM; EC50 (NCI-H716 cells; Homo sapiens, NCI-H716, read-out: GLP 1 Secretion): > 10 µM"
CCCCCCCCCCCCCCCC[N+](C)(C)CCN(Cc1ccc(OC)cc1)c1ncccn1 [Tonzonium bromide],3.41 µM,4.05 µM,> 10 µM,5.08 µM,,,,,,,,,,"IC50 [1, 5]: 3.07 µM; EC50 (INS-1E cells; [6]): > 10 µM; IC50 [2, 7]: 5.31 µM; EC50 [3, 9]: > 10 µM; EC50 (NCI-H716 cells; [12]): 17.8 µM"
"Cc1nc(Nc2ncc(C(=O)Nc3c(C)cccc3Cl)s2)cc(N2CCN(CCO)CC2)n1 [dasatinib, reference compound]",11.9 µM,3.52 µM,> 10 µM,7.02 µM,,,,,,,,,,"IC50 (HCT116; [22]): 11.9 µM; IC50 ([1]; Homo sapiens; read-out: Anti-Angio IC50): > 10 µM; EC50 (INS-1E cells; [23]): > 10 µM; IC50 [2, 24]: > 20 µM; IC50 (DLD-1; [25]): 3.5 µM; EC50 ([3]; Mus musculus, C2C12; read-out: Wnt Pathway): 0.0067 µM; EC50 ([3]; Mus musculus, C2C12; read-out: Wnt pot. EC50): 0.007 µM; IC50 (SW480; [26]): 7 µM; EC50 (NCI-H716 cells; [27]): > 10 µM"
"CCN(CC)CCNC(=O)c1c(C)[nH]c(/C=C2\C(=O)Nc3ccc(F)cc32)c1C [sunitinib, reference compound]",,,,,2.31 µM,,,1.63 µM,,> 10 µM,2.76 µM,,0.361 µM,"IC50 (HCT116; [22]): 2.3 µM; IC50 ([1]; Homo sapiens, read-out: Anti-Angio IC50): 0.025 µM; IC50 [1, 21]: 0.0254 µM; EC50 (INS-1E cells; [23]): > 20 µM; IC50 [2, 24]: 0.36 µM; IC50 (DLD-1; [25]): 1.6 µM; EC50 ([3]; Mus musculus, C2C12, Table 2; C2C12; […]; 20 / 20.1 coded; read-out: Wnt pot. EC50): > 10 µM; IC50 (SW480; [26]): 2.8 µM; EC50 (NCI-H716 cells; [27]): > 10 µM"
CCCCCCCCCCCCCCCC[N+](C)(C)Cc1ccccc1 [Cetalkonium chloride],,,,,3.47 µM,2.53 µM,> 10 µM,3.92 µM,> 10 µM,> 10 µM,5.17 µM,> 10 µM,6.25 µM,
O=c1[nH]c(=O)n([C@H]2C[C@H](O)[C@@H](CO)O2)cc1Br [Broxuridine],,,,,> 20 µM,3.85 µM,> 10 µM,> 20 µM,> 10 µM,> 10 µM,> 20 µM,> 10 µM,> 20 µM,
NCCNc1ccc(NCCN)c2c1C(=O)c1ccncc1C2=O [pixantrone],,,,,> 20 µM,0.0465 µM,> 10 µM,> 20 µM,> 10 µM,0.0483 µM,> 20 µM,> 10 µM,14.6 µM,
